Experimental data taken from patent US20250066369A1, “BICYCLIC PHTHALAZIN-1(2H)-ONE DERIVATIVES AND RELATED USES” (NodThera Limited, priority 2022, published 2025).

Tested on: IL-1β release upon NLRP3 activation in peripheral blood mononuclear cells (PBMC)
Test: PBMC IC50 determination assay: inhibition of IL-1β release upon NLRP3 activation
Assay type: cell-based
Details: PBMC primed with LPS 3 h, compound 30 min, stimulated with ATP (5 mM) or nigericin (10 μM) 1 h; IL-1β by ELISA (Protocol A) or HTRF (Protocol B)
Protocol: PBMC IC50 determination assay. The compounds of the present disclosure were tested for their inhibitory activity against IL-1β release upon NLRP3 activation in peripheral blood mononuclear cells (PBMC).
Protocol A. PBMC were isolated from buffy coats by density gradient centrifugation on Histopaque-1077 (Sigma, cat no. 10771). Isolated cells were seeded into the wells of a 96-well plate and incubated for 3 h with lipopolysaccharide (LPS). Following medium exchange, the compounds of the present disclosure were added (a single compound per well) and the cells were incubated for 30 min. Next, the cells were stimulated either with ATP (5 mM) or nigericin (10 μM) for 1 h and the cell culture media from the wells were collected for further analysis.
The release of IL-1β into the media was determined by a quantitative detection of IL-1β in the media using an IL-1β enzyme-linked immunosorbent assay (ELISA) Ready-SET-Go!, eBioscience cat. No. 88-7261-88. Briefly, in a first step, high affinity binding plates (Corning, Costar 9018 or NUNC Maxisorp Cat No. 44-2404) were coated overnight at 4° C. with specific capture antibody included in the kit (anti-human IL-1β ref. 14-7018-68). Subsequently, plates were blocked with blocking buffer for 1 h at room temperature (rt) and after washing with a buffer (PBS with 0.05% Tween-20) incubated with protein standard and culture media. After 2 h of incubation at rt, plates were washed and incubated with biotinylated detection antibody included in the kit (anti-human IL-1β Biotin ref 33-7110-68) for 1 h at rt. Plates were washed and incubated with HRP-streptavidin for 30 min at rt and washed again. The signal was developed after addition of 3,3′,5,5′-tetramethylbenzidine-peroxidase (TMB) until colour appeared and the reaction was stopped by 2 M H2SO4. A microplate spectrophotometer (BioTek) was used to detect signals with 450 nm. The detection range of IL-1β ELISA was […].
Protocol B. PBMC were isolated from buffy coats by density gradient centrifugation on Histopaque-1077 (Sigma, cat no. 10771). Isolated cells were seeded into the wells (280,000 cells/well) of a 96-well plate and incubated for 3 h with lipopolysaccharide (LPS, 1 μg/mL diluted 1000× from a 1 mg/mL stock solution). The compounds of the present disclosure were added (a single compound per well) and the cells were incubated for 30 min. Next, the cells were stimulated with ATP (5 mM final concentration diluted 20× from a 100 mM stock solution) for 1 h and the cell culture media from the wells were collected for further analysis.
The release of IL-1β into the media was determined by quantitative detection of IL-1β in the media using HTRF®, CisBio cat. No. 62HIL1BPEH. Briefly, cell culture supernatant were dispensed directly into the assay plate containing antibodies labelled with the HTRF® donor and acceptor. A microplate spectrophotometer (BMG) was used to detect signals at 655 nm and 620 nm. The detection range of IL-1β HTRF® was 39-6500 μg/mL.

**Q.** `CC(C)c1nn(C2(C(=O)Nc3ncccn3)CC2)c(=O)c2cn(C3CC3)nc12` [Compound 66, 1-(2-Cyclopropyl-7-isopropyl-4-oxo-2,4-dihydro-5H-pyrazolo[3,4-d]pyridazin-5-yl)-N-(pyrimidin-2-yl)cyclopropane-1-carboxamide] was tested. Which IC50 did it give?
**A.** 3000 to 10000 nM

Same assay, conditions: PBMC, PBMC primed with LPS 3 h, compound 30 min, stimulated with ATP (5 mM) or nigericin (10 μM) 1 h; IL-1β by ELISA (Protocol A) or HTRF (Protocol B)

**Q.** `CC(C)c1nn(CC(=O)Nc2ncccn2)c(=O)c2sc(NCC(F)F)cc12` [Compound 95, 2-{2-[(2,2-Difluoroethyl)amino]-7-oxo-4-(propan-2-yl)-6H,7H-thieno[2,3-d]pyridazin-6-yl}-N-(pyrimidin-2-yl)acetamide] was tested. Which IC50 did it give?
**A.** 100 to 1000 nM

**Q.** Which IC50 does the source give for `CC(C)c1nn(CC(=O)Nc2ncccn2)c(=O)c2sc(N)cc12` [Compound 101, 2-[2-Amino-7-oxo-4-(propan-2-yl)-6H,7H-thieno[2,3-d]pyridazin-6-yl]-N-(pyrimidin-2-yl)acetamide] here?
**A.** 1000 to 3000 nM

**Q.** For `Cc1cnc(NC(=O)Cn2nc(C)c3oc(C4CC4)cc3c2=O)nc1` [Compound 83, 2-{2-Cyclopropyl-7-methyl-4-oxo-4H,5H-furo[2,3-d]pyridazin-5-yl}-N-(5-methylpyrimidin-2-yl)acetamide], which IC50 is on record?
**A.** 100 to 1000 nM

**Q.** `CCc1nn(CC(=O)Nc2ncc(F)cn2)c(=O)c2cn(CC)nc12` [Compound 20, 2-(2,7-Diethyl-4-oxo-pyrazolo[3,4-d]pyridazin-5-yl)-N-(5-fluoropyrimidin-2-yl)acetamide] was tested. Which IC50 did it give?
**A.** 10000 to 50000 nM

**Q.** For `CCn1cc2c(=O)n(CC(=O)Nc3ncncc3F)nc(C(C)C)c2n1` [Compound 5, 2-(2-Ethyl-7-isopropyl-4-oxo-pyrazolo[3,4-d]pyridazin-5-yl)-N-(5-fluoropyrimidin-4-yl) acetamide], which IC50 is on record?
**A.** 1000 to 3000 nM

**Q.** For `CCOC(=O)c1cnc(NC(=O)Cn2nc(C)c3cc(C4CC4)sc3c2=O)nc1` [Compound 86, Ethyl 2-(2-{2-cyclopropyl-4-methyl-7-oxo-6H,7H-thieno[2,3-d]pyridazin-6-yl}acetamido)pyrimidine-5-carboxylate], which IC50 is on record?
**A.** 100 to 1000 nM

**Q.** `CC(C)c1nn(CC(=O)Nc2ccc3nncn3c2)c(=O)c2cc(C3CC3)oc12` [Compound 104, 2-[2-Cyclopropyl-4-oxo-7-(propan-2-yl)-4H,5H-furo[2,3-d]pyridazin-5-yl]-N-{[1,2,4]triazolo[4,3-a]pyridin-6-yl}acetamide] was tested. Which IC50 did it give?
**A.** 100 to 1000 nM

**Q.** How did the IC50 turn out when `CC(C)c1nn(CC(=O)Nc2ncccn2)c(=O)c2sc(C3CC3)cc12` [Compound 75, 2-(2-Cyclopropyl-4-isopropyl-7-oxothieno[2,3-d]pyridazin-6(7H)-yl)-N-(pyrimidin-2-yl)acetamide] was run?
**A.** 100 to 1000 nM

**Q.** Which IC50 does the source give for `CNc1cc2c(C)nn(CC(=O)Nc3ncco3)c(=O)c2s1` [Compound 119, 2-[4-Methyl-2-(methylamino)-7-oxo-6H,7H-thieno[2,3-d]pyridazin-6-yl]-N-(1,3-oxazol-2-yl)acetamide] here?
**A.** 1000 to 3000 nM

**Q.** Which IC50 does the source give for `CC(C)c1nn(CC(=O)N[C@@H]2CCCN(C3CC3)C2)c(=O)c2sc(Cl)cc12` [Compound 11, 2-(2-Chloro-4-isopropyl-7-oxo-thieno[2,3-d]pyridazin-6-yl)-N-[(3R)-1-cyclopropyl-3-piperidyl]acetamide] here?
**A.** 1000 to 3000 nM

**Q.** For `CCNc1cc2c(=O)n(CC(=O)Nc3ncccn3)nc(C(C)C)c2o1` [Compound 102, 2-[2-(Ethylamino)-4-oxo-7-(propan-2-yl)-4H,5H-furo[2,3-d]pyridazin-5-yl]-N-(pyrimidin-2-yl)acetamide], which IC50 is on record?
**A.** 100 to 1000 nM

**Q.** How did the IC50 turn out when `CC(C)c1nn(CC(=O)Nc2ncccn2)c(=O)c2cn(C3CCC3)nc12` [Compound 71, 2-(2-Cyclobutyl-7-isopropyl-4-oxo-2,4-dihydro-5H-pyrazolo[3,4-d]pyridazin-5-yl)-N-(pyrimidin-2-yl)acetamide] was run?
**A.** 1000 to 3000 nM

**Q.** `Cc1nc(NC(=O)Cn2nc(C(C)C)c3cc(C4CC4)ncc3c2=O)ns1` [Compound 19, 2-(7-Cyclopropyl-1-isopropyl-4-oxo-pyrido[3,4-d]pyridazin-3-yl)-N-(5-methyl-1,2,4-thiadiazol-3-yl)acetamide] was tested. Which IC50 did it give?
**A.** 10000 to 50000 nM

**Q.** For `CC(C)c1nn(CC(=O)Nc2ncc(F)cn2)c(=O)c2ccc(C3CC3)nc12` [Compound 28, 2-(2-Cyclopropyl-8-isopropyl-5-oxo-pyrido[2,3-d]pyridazin-6-yl)-N-(5-fluoropyrimidin-2-yl)acetamide], which IC50 is on record?
**A.** 100 to 1000 nM

**Q.** `CC(C)c1nn(CC(=O)NC2CC3(COC3)C2)c(=O)c2ccc(C3CC3)nc12` [Compound 25, 2-(2-Cyclopropyl-8-isopropyl-5-oxo-pyrido[2,3-d]pyridazin-6-yl)-N-(2-oxaspiro[3.3]heptan-6-yl)acetamide] was tested. Which IC50 did it give?
**A.** 1000 to 3000 nM

**Q.** With `CCc1cc2c(=O)n(CC(=O)Nc3ncccn3)nc(CC)c2o1` [Compound 54, 2-(2,7-Diethyl-4-oxofuro[2,3-d]pyridazin-5(4H)-yl)-N-(pyrimidin-2-yl)acetamide] as the compound, how does the IC50 read?
**A.** 100 to 1000 nM

**Q.** `Cc1cc2c(C)nn(CC(=O)Nc3ncccn3)c(=O)c2s1` [Compound 117, 2-{2,4-Dimethyl-7-oxo-6H,7H-thieno[2,3-d]pyridazin-6-yl}-N-(pyrimidin-2-yl)acetamide] was tested. Which IC50 did it give?
**A.** 1000 to 3000 nM

**Q.** Which IC50 does the source give for `CC(C)c1nn(C2(C(=O)Nc3ncccn3)CC2)c(=O)c2cn(C(C)C)nc12` [Compound 50, 1-(2,7-Diisopropyl-4-oxo-2,4-dihydro-5H-pyrazolo[3,4-d]pyridazin-5-yl)-N-(pyrimidin-2-yl)cyclopropane-1-carboxamide] here?
**A.** 1000 to 3000 nM

**Q.** With `CCn1cc2c(=O)n(CC(=O)Nc3ncc(F)cn3)nc(C(C)C)c2n1` [Compound 8, 2-(2-Ethyl-7-isopropyl-4-oxo-pyrazolo[3,4-d]pyridazin-5-yl)-N-(5-fluoropyrimidin-2-yl)acetamide] as the compound, how does the IC50 read?
**A.** 100 to 1000 nM

**Q.** `CC(C)c1nn(CC(=O)Nc2ncccn2)c(=O)c2sc(Br)cc12` [Compound 64, 2-(2-Bromo-4-isopropyl-7-oxothieno[2,3-d]pyridazin-6(7H)-yl)-N-(pyrimidin-2-yl)acetamide] was tested. Which IC50 did it give?
**A.** 100 to 1000 nM

**Q.** With `Cc1nn(CC(=O)Nc2ncccn2)c(=O)c2ccc(C3CC3)nc12` [Compound 34, 2-(2-Cyclopropyl-8-methyl-5-oxo-pyrido[2,3-d]pyridazin-6-yl)-N-pyrimidin-2-yl-acetamide] as the compound, how does the IC50 read?
**A.** 1000 to 3000 nM

**Q.** With `CC(C)c1nn(CC(=O)Nc2ncc(F)cn2)c(=O)c2sc(Cl)cc12` [Compound 60, 2-(2-Chloro-4-isopropyl-7-oxothieno[2,3-d]pyridazin-6(7H)-yl)-N-(5-fluoropyrimidin-2-yl)acetamide] as the compound, how does the IC50 read?
**A.** 100 to 1000 nM

**Q.** How did the IC50 turn out when `Cc1nn(CC(=O)Nc2ncc(Cl)cn2)c(=O)c2cc(C3CC3)oc12` [Compound 84, N-(5-Chloropyrimidin-2-yl)-2-{2-cyclopropyl-7-methyl-4-oxo-4H,5H-furo[2,3-d]pyridazin-5-yl}acetamide] was run?
**A.** 100 to 1000 nM

**Q.** Which IC50 does the source give for `Cc1nn(CC(=O)Nc2ncccn2)c(=O)c2cc(C3CC3)oc12` [Compound 82, 2-{2-Cyclopropyl-7-methyl-4-oxo-4H,5H-furo[2,3-d]pyridazin-5-yl}-N-(pyrimidin-2-yl)acetamide] here?
**A.** 100 to 1000 nM

**Q.** For `CCNc1cc2c(C)nn(CC(=O)Nc3ncccn3)c(=O)c2s1` [Compound 98, 2-[2-(Ethylamino)-4-methyl-7-oxo-6H,7H-thieno[2,3-d]pyridazin-6-yl]-N-(pyrimidin-2-yl)acetamide], which IC50 is on record?
**A.** 1000 to 3000 nM

**Q.** With `CC(C)c1nn(CC(=O)Nc2ncccn2)c(=O)c2cn(C3CC3)nc12` [Compound 65, 2-(2-Cyclopropyl-7-isopropyl-4-oxo-2,4-dihydro-5H-pyrazolo[3,4-d]pyridazin-5-yl)-N-(pyrimidin-2-yl)acetamide] as the compound, how does the IC50 read?
**A.** 100 to 1000 nM

**Q.** Which IC50 does the source give for `CCOC(=O)c1cnc(NC(=O)Cn2nc(C)c3oc(C4CC4)cc3c2=O)nc1` [Compound 90, Ethyl 2-(2-{2-cyclopropyl-7-methyl-4-oxo-4H,5H-furo[2,3-d]pyridazin-5-yl}acetamido)pyrimidine-5-carboxylate] here?
**A.** 100 to 1000 nM

**Q.** How did the IC50 turn out when `CC(C)c1nn(CC(=O)N[C@@H]2CCCN(C3CC3)C2)c(=O)c2c1cnn2C` [Compound 1, N-[(3R)-1-Cyclopropyl-3-piperidyl]-2-(4-isopropyl-1-methyl-7-oxo-pyrazolo[3,4-d]pyridazin-6-yl)acetamide] was run?
**A.** 3000 to 10000 nM

**Q.** Which IC50 does the source give for `CCc1nn(CC(=O)Nc2ncccn2)c(=O)c2sc(C)cc12` [Compound 116] here?
**A.** 1000 to 3000 nM
